Experimental data from patent US6914045B2, “Glycopeptide antibiotics” (Wyeth Holdings Corporation, priority 2001, dated 2005).
≈ marks a conversion by molar mass, not a printed value.

What was measured:
Experiment in all cases: in vitro antibacterial evaluation, MIC by broth dilution
Format in all cases: cell-based
Enterococcus sp. = details: broth dilution, 18 hours at 35° C.
Outline: (§1)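 Broth dilution per NCCLS standard M7-A2 in Muller-Hinton II […], with an inoculum of 5×10^5 CFU/mL and antibiotic spanning 64-0.06 μg/mL. The MIC is the lowest concentration that inhibits growth of the organism.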

Escherichia coli = details: for MIC Escherichia coli (ATCC 25922): strain ATCC 25922, 18 hours at 35° C.; for MIC Escherichia coli (GC 4559): strain GC 4559, 18 hours at 35° C.
Outline: as §1

Staphylococcus sp. = details: broth dilution, 18 hours at 35° C.; for MIC Staphylococcus aureus (GC 1131): strain GC 1131; for MIC Staphylococcus aureus (GC 3051): strain GC 3051; for MIC Staphylococcus aureus (GC 3053): strain GC 3053; for MIC Staphylococcus aureus (GC 4545): strain GC 4545; for MIC Staphylococcus haemolyticus (GC 4546): strain GC 4546; for MIC Coagulase Negative Staphylococcus (GC 4547): strain GC 4547; for MIC Coagulase Negative Staphylococcus (GC 4548): strain GC 4548; for MIC Coagulase Negative Staphylococcus (GC 4549): strain GC 4549; for MIC Coagulase Negative Staphylococcus (GC 4551): strain GC 4551; for MIC Coagulase Negative Staphylococcus (GC 6257): strain GC 6257
Outline: as §1

Streptococcus sp. = details: broth dilution, 18 hours at 35° C.
Outline: as §1

[1] = Enterococcus faecalis (GC 2242)
[2] = Enterococcus faecalis (GC 2691)
[3] = Enterococcus faecalis (GC 3059)
[4] = Streptococcus agalactiae (GC 4564)
[5] = Streptococcus pneumoniae (ATCC 6301)
[6] = Streptococcus pneumoniae (GC 1894)
[7] = Streptococcus pyogenes (GC 4563)

COc1cc(C2OCC3OC(OC4C(CO)OC(Oc5ccc(CC6NC(=O)C(C(C)c7ccccc7)NC(=O)CNC(=O)C(CO)NC(=O)C(C(O)C7CNC(=N)N7C7OC(CO)C(O)C(O)C7O)NC(=O)C(C(O)C7CNC(=N)N7)NC6=O)cc5)C(O)C4O)C(O)C(O)C3O2)ccc1[N+](=O)[O-] (stereo not drawn) [Example 153]
MIC Enterococcus avium (GC 4558) (Enterococcus sp.; Enterococcus avium (GC 4558)): 8 µg/mL (≈ 5.49 µM) | MIC Enterococcus faecalis (ATCC 29212) (Enterococcus sp.; Enterococcus faecalis (ATCC 29212)): 8 µg/mL (≈ 5.49 µM) | MIC Enterococcus faecalis (GC 2242) (Enterococcus sp.; [1]): 4 µg/mL (≈ 2.74 µM) | MIC Enterococcus faecalis (GC 2691) (Enterococcus sp.; [2]): 8 µg/mL (≈ 5.49 µM) | MIC Enterococcus faecalis (GC 3059) (Enterococcus sp.; [3]): 8 µg/mL (≈ 5.49 µM) | MIC Enterococcus faecalis (GC 4552) (Enterococcus sp.; Enterococcus faecalis (GC 4552)): 8 µg/mL (≈ 5.49 µM) | MIC Enterococcus faecalis (GC 4553) (Enterococcus sp.; Enterococcus faecalis (GC 4553)): 8 µg/mL (≈ 5.49 µM) | MIC Enterococcus faecalis (GC 4554) (Enterococcus sp.; Enterococcus faecalis (GC 4554)): 8 µg/mL (≈ 5.49 µM) | MIC Enterococcus faecalis (GC 6189) (Enterococcus sp.; Enterococcus faecalis (GC 6189)): 4 µg/mL (≈ 2.74 µM) | MIC Enterococcus faecium (GC 2243) (Enterococcus sp.; Enterococcus faecium (GC 2243)): 4 µg/mL (≈ 2.74 µM) | MIC Enterococcus faecium (GC 4556) (Enterococcus sp.; Enterococcus faecium (GC 4556)): 4 µg/mL (≈ 2.74 µM) | MIC Enterococcus faecium (GC 4557) (Enterococcus sp.; Enterococcus faecium (GC 4557)): 2 µg/mL (≈ 1.37 µM) | MIC Enterococcus faecalis (ATCC 29212) (Enterococcus sp.; strain ATCC 29212): 8 µg/mL (≈ 5.49 µM) | MIC Enterococcus faecalis (GC 2242) (Enterococcus sp.; strain GC 2242): 4 µg/mL (≈ 2.74 µM) | MIC Enterococcus faecium (GC 2243) (Enterococcus sp.; strain GC 2243): 4 µg/mL (≈ 2.74 µM) | MIC Enterococcus faecalis (GC 2691) (Enterococcus sp.; strain GC 2691): 8 µg/mL (≈ 5.49 µM) | MIC Enterococcus faecalis (GC 3059) (Enterococcus sp.; strain GC 3059): 8 µg/mL (≈ 5.49 µM) | MIC Enterococcus faecalis (GC 4552) (Enterococcus sp.; strain GC 4552): 8 µg/mL (≈ 5.49 µM) | MIC Enterococcus faecalis (GC 4553) (Enterococcus sp.; strain GC 4553): 8 µg/mL (≈ 5.49 µM) | MIC Enterococcus faecalis (GC 4554) (Enterococcus sp.; strain GC 4554): 8 µg/mL (≈ 5.49 µM) | MIC Enterococcus faecium (GC 4556) (Enterococcus sp.; strain GC 4556): 4 µg/mL (≈ 2.74 µM) | MIC Enterococcus faecium (GC 4557) (Enterococcus sp.; strain GC 4557): 2 µg/mL (≈ 1.37 µM) | MIC Enterococcus avium (GC 4558) (Enterococcus sp.; strain GC 4558): 8 µg/mL (≈ 5.49 µM) | MIC Enterococcus faecalis (GC 6189) (Enterococcus sp.; strain GC 6189): 4 µg/mL (≈ 2.74 µM) | MIC Escherichia coli (ATCC 25922) (Escherichia coli): 64 µg/mL (≈ 43.9 µM) | MIC Escherichia coli (GC 4559) (Escherichia coli): 64 µg/mL (≈ 43.9 µM) | MIC Staphylococcus aureus (GC 1131) (Staphylococcus sp.; inoculum 5×10^5 CFU/mL): 2 µg/mL (≈ 1.37 µM) | MIC Staphylococcus aureus (ATCC 29213) (Staphylococcus sp.; strain ATCC 29213): 2 µg/mL (≈ 1.37 µM) | MIC Staphylococcus aureus (GC 1131) (Staphylococcus sp.): 2 µg/mL (≈ 1.37 µM) | MIC Staphylococcus aureus (GC 3051) (Staphylococcus sp.): 2 µg/mL (≈ 1.37 µM) | MIC Staphylococcus aureus (GC 3053) (Staphylococcus sp.): 4 µg/mL (≈ 2.74 µM) | MIC Staphylococcus aureus (GC 4541) (Staphylococcus sp.; strain GC 4541): 2 µg/mL (≈ 1.37 µM) | MIC Staphylococcus aureus (GC 4542) (Staphylococcus sp.; strain GC 4542): 2 µg/mL (≈ 1.37 µM) | MIC Staphylococcus aureus-SMITH (GC 4543) (Staphylococcus sp.; strain GC 4543): 1 µg/mL (≈ 0.686 µM) | MIC Staphylococcus aureus (GC 4544) (Staphylococcus sp.; strain GC 4544): 2 µg/mL (≈ 1.37 µM) | MIC Staphylococcus aureus (GC 4545) (Staphylococcus sp.): 2 µg/mL (≈ 1.37 µM) | MIC Staphylococcus haemolyticus (GC 4546) (Staphylococcus sp.): 1 µg/mL (≈ 0.686 µM) | MIC Coagulase Negative Staphylococcus (GC 4547) (Staphylococcus sp.): 1 µg/mL (≈ 0.686 µM) | MIC Coagulase Negative Staphylococcus (GC 4548) (Staphylococcus sp.): 0.5 µg/mL (≈ 0.343 µM) | MIC Coagulase Negative Staphylococcus (GC 4549) (Staphylococcus sp.): 0.5 µg/mL (≈ 0.343 µM) | MIC Coagulase Negative Staphylococcus (GC 4551) (Staphylococcus sp.): 2 µg/mL (≈ 1.37 µM) | MIC Coagulase Negative Staphylococcus (GC 6257) (Staphylococcus sp.): 0.5 µg/mL (≈ 0.343 µM) | MIC Staphylococcus aureus-SMITH (GC 4543) (Staphylococcus sp.; strain SMITH GC 4543): 1 µg/mL (≈ 0.686 µM) | MIC Streptococcus agalactiae (GC 4564) (Streptococcus sp.; [4]): 0.5 µg/mL (≈ 0.343 µM) | MIC Streptococcus pneumoniae (ATCC 6301) (Streptococcus sp.; [5]): <0.06 µg/mL | MIC Streptococcus pneumoniae (GC 1894) (Streptococcus sp.; [6]): <0.06 µg/mL | MIC Streptococcus pneumoniae (GC 4565) (Streptococcus sp.; Streptococcus pneumoniae (GC 4565)): <0.06 µg/mL | MIC Streptococcus pyogenes (GC 4563) (Streptococcus sp.; [7]): 0.25 µg/mL (≈ 0.171 µM) | MIC Streptococcus pneumoniae (ATCC 6301) (Streptococcus sp.; strain ATCC 6301): <0.06 µg/mL | MIC Streptococcus pneumoniae (GC 1894) (Streptococcus sp.; strain GC 1894): <0.06 µg/mL | MIC Streptococcus pyogenes (GC 4563) (Streptococcus sp.; strain GC 4563): 0.25 µg/mL (≈ 0.171 µM) | MIC Streptococcus agalactiae (GC 4564) (Streptococcus sp.; strain GC 4564): 0.5 µg/mL (≈ 0.343 µM) | MIC Streptococcus pneumoniae (GC 4565) (Streptococcus sp.; strain GC 4565): <0.06 µg/mL

CC(c1ccccc1)C1NC(=O)CNC(=O)C(CO)NC(=O)C(C(O)C2CNC(=N)N2C2OC(CO)C(O)C(O)C2O)NC(=O)C(C(O)C2CNC(=NC(=O)C(C)(C)C)N2)NC(=O)C(Cc2ccc(OC3OC(CO)C(OC4OC(CO)C(O)C(O)C4O)C(O)C3O)cc2)NC1=O (stereo not drawn) [Example 155]
MIC Enterococcus faecalis (GC 2242) (Enterococcus sp.; [1]): 0.5 to 1 µg/mL | MIC Enterococcus faecalis (GC 2691) (Enterococcus sp.; [2]): 0.5 µg/mL (≈ 0.362 µM) | MIC Enterococcus faecalis (GC 3059) (Enterococcus sp.; [3]): 0.5 µg/mL (≈ 0.362 µM) | MIC Enterococcus faecalis (ATCC 29212) (Enterococcus sp.; inoculum 5×10^5 CFU/mL, strain ATCC 29212): 0.5 to 1 µg/mL | MIC Enterococcus faecium (GC 2243) (Enterococcus sp.; inoculum 5×10^5 CFU/mL, strain GC 2243): <0.5 to 1 µg/mL | MIC Enterococcus faecalis (GC 4554) (Enterococcus sp.; inoculum 5×10^5 CFU/mL, strain GC 4554): 0.5 to 1 µg/mL | MIC Enterococcus faecium (GC 4556) (Enterococcus sp.; inoculum 5×10^5 CFU/mL, strain GC 4556): 1 to 2 µg/mL | MIC Enterococcus faecium (GC 4557) (Enterococcus sp.; inoculum 5×10^5 CFU/mL, strain GC 4557): 1 to 2 µg/mL | MIC Enterococcus avium (GC 4558) (Enterococcus sp.; inoculum 5×10^5 CFU/mL, strain GC 4558): 0.5 to 1 µg/mL | MIC Enterococcus faecalis (GC 6189) (Enterococcus sp.; inoculum 5×10^5 CFU/mL, strain GC 6189): 0.5 µg/mL (≈ 0.362 µM) | MIC Enterococcus faecalis (ATCC 29212) (Enterococcus sp.; strain ATCC 29212): 0.5 to 1 µg/mL | MIC Enterococcus faecalis (GC 2242) (Enterococcus sp.; strain GC 2242): 0.5 to 1 µg/mL | MIC Enterococcus faecium (GC 2243) (Enterococcus sp.; strain GC 2243): <0.5 to 1 µg/mL | MIC Enterococcus faecalis (GC 2691) (Enterococcus sp.; strain GC 2691): 0.5 µg/mL (≈ 0.362 µM) | MIC Enterococcus faecalis (GC 3059) (Enterococcus sp.; strain GC 3059): 0.5 µg/mL (≈ 0.362 µM) | MIC Enterococcus faecalis (GC 4554) (Enterococcus sp.; strain GC 4554): 0.5 to 1 µg/mL | MIC Enterococcus faecium (GC 4556) (Enterococcus sp.; strain GC 4556): 1 to 2 µg/mL | MIC Enterococcus faecium (GC 4557) (Enterococcus sp.; strain GC 4557): 1 to 2 µg/mL | MIC Enterococcus avium (GC 4558) (Enterococcus sp.; strain GC 4558): 0.5 to 1 µg/mL | MIC Enterococcus faecalis (GC 6189) (Enterococcus sp.; strain GC 6189): 0.5 µg/mL (≈ 0.362 µM) | MIC Escherichia coli (ATCC 25922) (Escherichia coli): >64 µg/mL | MIC Escherichia coli (GC 4559) (Escherichia coli): >64 µg/mL | MIC Escherichia coli (GC 4560) (Escherichia coli; strain GC 4560, 18 hours at 35° C.): 0.5 to 2 µg/mL | MIC Staphylococcus aureus (GC 3051) (Staphylococcus sp.): 0.5 µg/mL (≈ 0.362 µM) | MIC Staphylococcus aureus (GC 3053) (Staphylococcus sp.): 0.5 µg/mL (≈ 0.362 µM) | MIC Staphylococcus aureus (GC 4545) (Staphylococcus sp.): 0.5 to 1 µg/mL | MIC Staphylococcus haemolyticus (GC 4546) (Staphylococcus sp.): <0.5 to 1 µg/mL | MIC Coagulase Negative Staphylococcus (GC 4547) (Staphylococcus sp.): <0.5 to 2 µg/mL | MIC Coagulase Negative Staphylococcus (GC 4548) (Staphylococcus sp.): <0.5 to 1 µg/mL | MIC Coagulase Negative Staphylococcus (GC 4549) (Staphylococcus sp.): <0.5 to 1 µg/mL | MIC Coagulase Negative Staphylococcus (GC 4551) (Staphylococcus sp.): <0.5 to 1 µg/mL | MIC Coagulase Negative Staphylococcus (GC 6257) (Staphylococcus sp.): 1 µg/mL (≈ 0.725 µM) | MIC Coagulase Negative Staphylococcus (ID-3941) (Staphylococcus sp.; strain ID-3941): <0.5 µg/mL | MIC Streptococcus agalactiae (GC 4564) (Streptococcus sp.; [4]): <0.12 µg/mL | MIC Streptococcus pneumoniae (ATCC 6301) (Streptococcus sp.; [5]): 0.12 µg/mL (≈ 0.087 µM) | MIC Streptococcus pneumoniae (GC 1894) (Streptococcus sp.; [6]): 0.12 µg/mL (≈ 0.087 µM) | MIC Streptococcus pyogenes (GC 4563) (Streptococcus sp.; [7]): >0.12 µg/mL | MIC Streptococcus pyogenes (ID-3187) (Streptococcus sp.; Streptococcus pyogenes (ID-3187)): <0.5 µg/mL | MIC Streptococcus pneumoniae (ATCC 6301) (Streptococcus sp.; strain ATCC 6301): 0.12 µg/mL (≈ 0.087 µM) | MIC Streptococcus pneumoniae (GC 1894) (Streptococcus sp.; strain GC 1894): 0.12 µg/mL (≈ 0.087 µM) | MIC Streptococcus pyogenes (GC 4563) (Streptococcus sp.; strain GC 4563): >0.12 µg/mL | MIC Streptococcus agalactiae (GC 4564) (Streptococcus sp.; strain GC 4564): <0.12 µg/mL | MIC Streptococcus pyogenes (ID-3187) (Streptococcus sp.; strain ID-3187): <0.5 µg/mL
